Results on four molecules are retold here after ChEMBL document CHEMBL1201862, “PubChem BioAssay data set” (2004).

Test systems include OVCAR-5; SF-268; SR; HCC 2998; SK-MEL-5; MDA-MB-231; TK-10; KM12; EKVX; BT-549; SK-MEL-2; HCT-116; MCF7; HT-29; M14; SF-539; DMS-114; DU-145; HOP-92; UACC-62.
Test in all cases: DTP human tumour cell line panel, 48 h

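Grown in 96-well plates, cells were treated for 48 hours with each compound at five concentrations. Insufficient inhibition: endpoint recorded as highest concentration tested. GI50: concentration for 50% inhibition of growth.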 Calls of active or inactive are those of the source. Cut-off read from the data, not from the text of the source: active = GI50 up to about 1.1 µM and inactive = higher.

For `O=C(CC1(O)C(=O)Nc2c(Cl)cc(Cl)cc21)c1cccc([N+](=O)[O-])c1` (centres undefined), the GI50 in the test with OVCAR-5 was 55.7 µM (inactive); with SF-268 it was 44.4 µM (inactive); in the test on SR it was 51.9 µM (inactive); in the test on HCC 2998 it was > 45.2 µM (inactive); in the test with SK-MEL-5, 17.2 µM (inactive); in the test with MDA-MB-231, 29.9 µM (inactive). The GI50 is > 55.8 µM (inactive) in the test on TK-10; 24.5 µM (inactive) with KM12; 52.5 µM (inactive) in the test on EKVX; 61 µM (inactive) with BT-549; 34.3 µM (inactive) in the test with SK-MEL-2; 19.8 µM (inactive) in the test with HCT-116. The GI50 in the test with MCF7 was 11.9 µM (inactive); with HT-29, 28.9 µM (inactive); in the test with M14 it was 22.8 µM (inactive); with SF-539, 27.9 µM (inactive); in the test with DMS-114, 21.5 µM (inactive); with DU-145, > 100 µM (inactive). Also, the GI50 in the test with HOP-92 was 23.2 µM (inactive); in the test with UACC-62 it was 18.8 µM (inactive).
Turning to `COC(=O)NC1C(C)OC(OC2C/C=C(/C)C3C=CC4C(OC5CC(OC6CC(O)C(OC7CC(O)C(OC)C(C)O7)C(C)O6)C(O)C(C)O5)C(C)CC(C)C4C3(C)C(=O)C3=C(O)C4(CC(C)C(CO)=CC4/C=C\2C)OC3=O)CC1(C)[N+](=O)[O-]` (centres undefined), the GI50 was 17.9 µM (inactive) in the test with OVCAR-5; 14.8 µM (inactive) in the test on SF-268; 14.8 µM (inactive) in the test with SR; 16.6 µM (inactive) in the test on HCC 2998; 15.6 µM (inactive) with SK-MEL-5; 12.6 µM (inactive) with MDA-MB-231. The GI50 was 10 µM (inactive) with TK-10; 14.5 µM (inactive) in the test with KM12; 5.26 µM (inactive) in the test on EKVX; 13.5 µM (inactive) in the test on BT-549; 11.4 µM (inactive) with SK-MEL-2; 5.36 µM (inactive) in the test with HCT-116. In addition, the GI50 with MCF7 is 2.71 µM (inactive); in the test with HT-29, 15.7 µM (inactive); in the test on M14, 9.29 µM (inactive); with SF-539 it was 16.9 µM (inactive); with DMS-114, 2.5 µM (inactive); in the test with DU-145, 11.6 µM (inactive). Also, the GI50 in the test on HOP-92 was 5.45 µM (inactive); with UACC-62, 6.37 µM (inactive).
For the molecule `CCOC(=O)CSc1nnc(CSc2nc(-c3ccccc3)c(-c3ccccc3)[nH]2)n1-c1ccccc1`, the GI50 in the test on OVCAR-5 is > 59.2 µM (inactive); with SF-268 it was 26.1 µM (inactive); with SR, 39.4 µM (inactive); in the test on HCC 2998, 19.5 µM (inactive); in the test with SK-MEL-5, > 100 µM (inactive); in the test with MDA-MB-231, 34.5 µM (inactive). The GI50 in the test on TK-10 was 17 µM (inactive); in the test with KM12 it was > 75.9 µM (inactive); in the test on EKVX, > 100 µM (inactive); in the test with BT-549, > 100 µM (inactive); in the test on SK-MEL-2, > 31.6 µM (inactive); in the test with HCT-116, > 56.5 µM (inactive). Besides, the GI50 was 66.4 µM (inactive) with MCF7; 48.8 µM (inactive) with HT-29; > 45 µM (inactive) in the test with M14; 20.7 µM (inactive) in the test with SF-539; 15.3 µM (inactive) in the test on DMS-114; 15.4 µM (inactive) with DU-145. Moreover, the GI50 in the test on HOP-92 was 40.4 µM (inactive); in the test with UACC-62, 27.2 µM (inactive).
As to `C=C1C(O)C2(O)OCC34C(CC5C(C)=CC(=O)C(O)C5(C)C23)OC(=O)C(OC(=O)C/C=C(\C)CCCCC)C14` (centres undefined), the GI50 is 0.0231 µM (active) in the test with OVCAR-5; 0.0152 µM (active) with SF-268; < 0.01 µM (active) in the test on SR; 0.0136 µM (active) in the test on HCC 2998; 0.00315 µM (active) with MDA-MB-231; 0.00177 µM (active) in the test on TK-10. The GI50 in the test on KM12 was 0.0129 µM (active); in the test on EKVX it was 0.0198 µM (active); in the test with BT-549 it was < 0.001 µM (active); in the test on SK-MEL-2, 0.0251 µM (active); in the test with HCT-116 it was 0.0125 µM (active); in the test with MCF7, 0.0125 µM (active). Also, the 50% growth inhibitory concentration (GI50) in the test on HT-29 was 0.0141 µM (active); in the test with M14, < 0.001 µM (active); in the test with SF-539, 0.0153 µM (active); in the test on DMS-114 it was 0.0125 µM (active); with DU-145, < 0.001 µM (active); in the test on HOP-92, 0.0147 µM (active). Further, the GI50 with UACC-62 is 0.0147 µM (active).

What is called GI50 is the concentration giving 50% growth inhibition.
